Results published in PubChem BioAssay (NCI).
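Assay format: 96-well plates, 48-hour exposure. GI50 = concentration required for 50% inhibition of growth. Definition used: TGI = concentration required for complete inhibition of growth.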

How the values were obtained:
Assay in all cases: NCI tumour cell line growth inhibition, 48 h
LOX IMVI melanoma = tested on: LOX IMVI melanoma
HOP-92 NSCLC = tested on: HOP-92 NSCLC
SNB-75 CNS = tested on: SNB-75 CNS
RXF 393 renal = tested on: RXF 393 renal
OVCAR-4 ovarian = tested on: OVCAR-4 ovarian
DU-145 prostate = tested on: DU-145 prostate
OVCAR-8 ovarian = tested on: OVCAR-8 ovarian
UO-31 renal = tested on: UO-31 renal
SK-MEL-28 melanoma = tested on: SK-MEL-28 melanoma
ACHN renal = tested on: ACHN renal
A498 renal = tested on: A498 renal
MDA-MB-231 breast = tested on: MDA-MB-231 breast
UACC-62 melanoma = tested on: UACC-62 melanoma
OVCAR-5 ovarian = tested on: OVCAR-5 ovarian
TK-10 renal = tested on: TK-10 renal
SF-539 CNS = tested on: SF-539 CNS

C=C(C)[C@@H]1CC[C@]2(COCCCNCCCN)CC[C@]3(C)[C@H](CC[C@@H]4[C@@]5(C)CC[C@H](O)C(C)(C)[C@@H]5CC[C@]43C)[C@@H]12
GI50 (LOX IMVI melanoma): 234 nM
TGI (LOX IMVI melanoma): 2280 nM
GI50 (HOP-92 NSCLC): 1520 nM
TGI (HOP-92 NSCLC): 3140 nM
GI50 (SNB-75 CNS): 1730 nM
TGI (SNB-75 CNS): 3370 nM
GI50 (RXF 393 renal): 1570 nM
TGI (RXF 393 renal): 2960 nM
GI50 (OVCAR-4 ovarian): 1960 nM
TGI (OVCAR-4 ovarian): 3730 nM
GI50 (DU-145 prostate): 1940 nM
TGI (DU-145 prostate): 3490 nM
GI50 (OVCAR-8 ovarian): 2140 nM
TGI (OVCAR-8 ovarian): 4880 nM
GI50 (UO-31 renal): 1600 nM
TGI (UO-31 renal): 3030 nM
GI50 (SK-MEL-28 melanoma): 1750 nM
TGI (SK-MEL-28 melanoma): 3370 nM
GI50 (ACHN renal): 1780 nM
TGI (ACHN renal): 3240 nM
GI50 (A498 renal): 1850 nM
TGI (A498 renal): 4210 nM
GI50 (MDA-MB-231 breast): 1850 nM
TGI (MDA-MB-231 breast): 3490 nM
GI50 (UACC-62 melanoma): 1770 nM
TGI (UACC-62 melanoma): 3390 nM
GI50 (OVCAR-5 ovarian): 1750 nM
TGI (OVCAR-5 ovarian): 3230 nM
GI50 (TK-10 renal): 1840 nM
TGI (TK-10 renal): 3560 nM
GI50 (SF-539 CNS): 1770 nM
TGI (SF-539 CNS): 3390 nM
